The record followed here is PMC4061985 (Journal of immunology (Baltimore, Md. : 1950), 2009).

The Kd is the free concentration of one partner at which half of the binding sites on the other are occupied at equilibrium, for simple one-to-one binding.

Residues, ends and D or L forms follow the SMILES beside them.

The target of the first test is HLA-DR0901 protein (Homo sapiens, UniProt P01903+P01911, A100R/A103E/D57H/D86V/F55Y/F60I/F76Y/I96F/K127E/L162R/M171V/P40D/Q125H/Q99R/R33Q/R42F/S133A/S66N/T210M/V115G/W38K/Y107V/Y59G/Y89S). As to the kind of experiment: Peptide binding competition assay, DR0901.
`CC[C@H](C)[C@H](NC(=O)[C@H](Cc1ccc(O)cc1)NC(=O)[C@H](CC(=O)O)NC(=O)[C@H](CC(C)C)NC(=O)[C@H](CO)NC(=O)[C@H](Cc1ccc(O)cc1)NC(=O)[C@H](CC(N)=O)NC(=O)[C@H](Cc1ccccc1)NC(=O)[C@H](CC(N)=O)NC(=O)[C@@H](N)CC(C)C)C(=O)N[C@H](C(=O)N[C@H](C(=O)N[C@@H](CC(=O)O)C(=O)O)C(C)C)[C@@H](C)CC` [LNFNYSLDYIIVD] (H-LNFNYSLDYIIVD-OH) showed a Kd of 41 ± 10 nM.

In turn, `CC[C@H](C)[C@H](NC(=O)[C@H](CCCCN)NC(=O)[C@H](C)NC(=O)[C@H](CC(C)C)NC(=O)[C@H](CO)NC(=O)[C@H](Cc1ccc(O)cc1)NC(=O)[C@H](CC(N)=O)NC(=O)[C@H](Cc1ccccc1)NC(=O)[C@H](CC(N)=O)NC(=O)[C@@H](N)CC(C)C)C(=O)N[C@H](C(=O)N[C@H](C(=O)N[C@@H](CC(=O)O)C(=O)O)C(C)C)[C@@H](C)CC` [LNFNYSLAKIIVD] (H-LNFNYSLAKIIVD-OH) yielded a Kd of 51 ± 18 nM.

As to `CC[C@H](C)[C@H](NC(=O)[C@H](CCCCN)NC(=O)[C@H](CC(=O)O)NC(=O)[C@H](CC(C)C)NC(=O)[C@H](CCCNC(=N)N)NC(=O)[C@H](Cc1ccc(O)cc1)NC(=O)[C@H](CC(N)=O)NC(=O)[C@H](Cc1ccccc1)NC(=O)[C@H](CC(N)=O)NC(=O)[C@@H](N)CC(C)C)C(=O)N[C@H](C(=O)N[C@H](C(=O)N[C@@H](CC(=O)O)C(=O)O)C(C)C)[C@@H](C)CC` [LNFNYRLDKIIVD] (H-LNFNYRLDKIIVD-OH), the Kd was 1230 nM.

On to `CC[C@H](C)[C@H](NC(=O)[C@H](CCCCN)NC(=O)[C@H](CC(=O)O)NC(=O)[C@H](CC(C)C)NC(=O)[C@H](CO)NC(=O)[C@H](Cc1ccc(O)cc1)NC(=O)[C@H](CC(N)=O)NC(=O)[C@H](Cc1ccccc1)NC(=O)[C@H](CC(N)=O)NC(=O)[C@@H](N)CC(C)C)C(=O)N[C@@H](CCC(=O)O)C(=O)N[C@H](C(=O)N[C@@H](CC(=O)O)C(=O)O)C(C)C` [LNFNYSLDKIEVD] (H-LNFNYSLDKIEVD-OH), for which binding was characterised by a dissociation constant (Kd) of 890 ± 290 nM.

For the compound `CC[C@H](C)[C@H](NC(=O)[C@H](CCCCN)NC(=O)[C@H](CC(=O)O)NC(=O)[C@H](CC(C)C)NC(=O)[C@H](CO)NC(=O)[C@H](Cc1ccc(O)cc1)NC(=O)[C@H](CC(N)=O)NC(=O)[C@H](Cc1ccccc1)NC(=O)[C@H](CC(N)=O)NC(=O)[C@@H](N)CC(C)C)C(=O)N[C@H](C(=O)N[C@H](C(=O)N[C@@H](CC(=O)O)C(=O)O)C(C)C)[C@@H](C)CC` [LNFNYSLDKIIVD] (H-LNFNYSLDKIIVD-OH), the Kd was 73 ± 16 nM.

`CC[C@H](C)[C@H](NC(=O)[C@H](CCCCN)NC(=O)[C@H](CC(=O)O)NC(=O)[C@H](CC(C)C)NC(=O)CNC(=O)[C@H](Cc1ccc(O)cc1)NC(=O)[C@H](CC(N)=O)NC(=O)[C@H](Cc1ccccc1)NC(=O)[C@H](CC(N)=O)NC(=O)[C@@H](N)CC(C)C)C(=O)N[C@H](C(=O)N[C@H](C(=O)N[C@@H](CC(=O)O)C(=O)O)C(C)C)[C@@H](C)CC` [LNFNYGLDKIIVD] (H-LNFNYGLDKIIVD-OH) yielded a Kd of 38 ± 5 nM.

As to `CC[C@H](C)[C@H](NC(=O)[C@H](CCCCN)NC(=O)[C@H](CC(=O)O)NC(=O)[C@H](CC(C)C)NC(=O)[C@H](CO)NC(=O)[C@H](Cc1ccc(O)cc1)NC(=O)[C@H](CC(N)=O)NC(=O)[C@@H](NC(=O)[C@H](CC(N)=O)NC(=O)[C@@H](N)CC(C)C)C(C)C)C(=O)N[C@H](C(=O)N[C@H](C(=O)N[C@@H](CC(=O)O)C(=O)O)C(C)C)[C@@H](C)CC` [LNVNYSLDKIIVD] (H-LNVNYSLDKIIVD-OH), the Kd was determined as 440 ± 130 nM.

A further test deals with HLA-DRA1/B1*0901, soluble recombinant protein (human).
Test: not given
With TT 503–515 peptide, unmodified, the Kd is 73 nM.
